Patent US20240067651A1 (Biohaven Therapeutics Ltd., priority 2019, published 2024)
Like-named read-outs stand apart in the source and are kept apart here.

Assays:
[1] = Stability in Simulated Gastric Fluid (SGF); assay type: in vitro ADME; parameters: key: % parent compound remaining relative to 0-minute sample
How it was run: (§1)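 Each compound is spiked to a final 2 μg/mL into SGF with pepsin (pH 1.2) and into SIF with pancreatin (pH 6.8). Samples shake at 37° C, aliquots are taken between 0 and 60 minutes, precipitated with acetonitrile and analysed by LC-MS/MS. Degradation half-life is derived from the natural-log plot where time points allow.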

Caco-2 monolayer = assay: Caco-2 Permeability Assay; assay type: in vitro ADME, human
How it was run: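 Bidirectional transport at 37 °C for 90 min, 10 μM donor concentration, with or without Pgp inhibitor, across 21-day Caco-2 monolayers with TEER >600 […] in HEPES-buffered HBSS, pH 7.4. LC-MS/MS of donor and receiver samples gives Papp, B→A/A→B efflux ratio and mass recovery.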

[2] = Stability in Simulated Intestinal Fluid (SIF); assay type: in vitro ADME; parameters: key: % parent compound remaining relative to 0-minute sample
How it was run: as §1

Plasma Stability = assay type: in vitro ADME, human
How it was run: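 Parent compound quantified by LC-MS/MS after acetonitrile precipitation, reported as percent of control remaining (triplicate). Incubation: 1 hour, 37° C, fresh human plasma, compound at 1 μM.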

[3] = % remaining after 1 h in simulated gastric fluid
[4] = % remaining after 1 h in simulated intestinal fluid
[5] = % remaining after 1 h in human plasma
[6] = simulated gastric fluid, remaining at 1 h
[7] = simulated intestinal fluid, remaining at 1 h
[8] = % remaining at 1 h in simulated gastric fluid
[9] = % remaining at 1 h in simulated intestinal fluid
[10] = % remaining at 1 h in human plasma
[11] = % remaining at 1 h, SGF with pepsin pH 1.2, 2 μg/mL, 37° C.
[12] = donor 10 μM, 90 minutes, 37° C., direction not given
[13] = % remaining at 1 h, SIF with pancreatin pH 6.8, 2 μg/mL, 37° C.
[14] = % remaining at 1 h, human plasma, 1 μM, 37° C.

In the case of “trifluoroacetic acid {4-oxo-1-[2-(propan-2-yloxy)ethyl]-2-sulfanylidene-1H,2H,3H,4H,5H-pyrrolo[3,2-d]pyrimidin-5-yl}methyl (2R)-1-[2-(2-aminoacetamido)acetyl]pyrrolidine-2-carboxylate [Example 406]”, the SGF [1, 3] is reported as 88% remaining, the “Caco-2 Papp” value (Caco-2 monolayer; Caco-2 monolayer) is reported as 3.42 ×10⁻⁶ cm/s and the SIF [2, 4] is reported as 71% remaining. The “human Plasma stability” value (Plasma Stability; [5]) was 0% remaining.
With `COc1ccc(N(C)C(=O)OCSc2nc(=O)c3[nH]ccc3n2CCOC(C)C)cc1` [Example 254] the SGF ([1]; simulated gastric fluid, at 1 h) was 95% remaining, the “Caco-2 Papp” value (Caco-2 monolayer; Caco-2 monolayer) was 8.53 ×10⁻⁶ cm/s and the SIF ([2]; simulated intestinal fluid, at 1 h) was 94% remaining. For the same compound, the “human Plasma stability” value (Plasma Stability; human plasma, at 1 h) was 88% remaining.
With “tert-butyl N-[2-(2-{[(1-{4-oxo-1-[2-(propan-2-yloxy)ethyl]-2-sulfanylidene-1H,2H,3H,4H,5H-pyrrolo[3,2-d]pyrimidin-5-yl}ethoxy)carbonyl]amino}eth-oxy)ethyl]carbamate [Example 375]” the SGF [1, 6] was 89% remaining, the “Caco-2 Papp” value (Caco-2 monolayer; Caco-2 monolayer) was <0.175 ×10⁻⁶ cm/s and the SIF [2, 7] was 99% remaining. The “human Plasma stability” value (Plasma Stability; human plasma, remaining at 1 h) was 99% remaining.
For “(2R)-2-amino-4-(methylsulfanyl)-N-[2-(2-{[{{4-oxo-1-[2-(propan-2-yloxy)ethyl]-2-sulfanylidene-1H,2H,3H,4H,5H-pyrrolo[3,2-d]pyrimidin-5-yl}methoxy)carbonyl]oxy}ethoxy)eth-yl]butanamide; trifluoroacetic acid [Example 390]”, the SGF [1, 6] was 100% remaining, the “Caco-2 Papp” value (Caco-2 monolayer; Caco-2 monolayer) was 0.49 ×10⁻⁶ cm/s and the SIF [2, 7] was 64% remaining. The “human Plasma stability” value (Plasma Stability; human plasma, remaining at 1 h) was 0% remaining.
With “5-[{[4-(carbamoyloxy)butoxy]carbon-yl}oxy)methyl]-1-[2-(propan-2-yloxy)ethyl]-2-sulfanylidene-1H,2H,3H,4H,5H-pyrrolo[3,2-d]pyrimidin-4-one [Example 411]” the SGF [1, 3] was 92% remaining, the “Caco-2 Papp” value (Caco-2 monolayer; Caco-2 monolayer) was <0.107 ×10⁻⁶ cm/s and the SIF [2, 4] was 22% remaining. The “human Plasma stability” value (Plasma Stability; [5]) was 1% remaining.
In the case of `CC(C)OCCn1c(=S)[nH]c(=O)c2c1ccn2COC(=O)CCCCNC(=O)[C@@H]1CCCN1C(N)=O.O=C(O)C(F)(F)F` [Example 69, trifluoroacetic acid {4-oxo-1-[2-(propan-2-yloxy)ethyl]-2-sulfanylidene-1H,2H,3H,4H,5H-pyrrolo[3,2-d]pyrimidin-5-yl}methyl 5-{[(2S)-1-carbamoylpyrrolidin-2-yl]formamido}pentanoate Caco-2 Papp], the SGF [1, 8] is reported as 84% remaining, the “Caco-2 Papp” value (Caco-2 monolayer; Caco-2 monolayer) is reported as 0.217 ×10⁻⁶ cm/s and the SIF [2, 9] is reported as 94% remaining. The “human Plasma stability” value (Plasma Stability; [10]) was 7% remaining.
In the case of `CC(C)OCCn1c(=S)[nH]c(=O)c2c1ccn2COC(=O)CCCCNC(=O)CN.O=C(O)C(F)(F)F` [Example 15, trifluoroacetic acid {4-oxo-1-[2-(propan-2-yloxy)ethyl]-2-sulfanylidene-1H,2H,3H,4H,5H-pyrrolo[3,2-d]pyrimidin-5-yl} methyl 5-(2-aminoacetamido)pentanoate], the SGF [1, 8] is reported as 100%, the “Caco-2 Papp” value (Caco-2 monolayer; Caco-2 monolayer) is reported as >0.567 ×10⁻⁶ cm/s and the SIF [2, 9] is reported as 4% remaining. The “human Plasma stability” value (Plasma Stability; [10]) was 9% remaining.
In the case of `CC(C)OCCn1c(=S)[nH]c(=O)c2c1ccn2COC(=O)CCCCNC(=O)[C@@H]1CCC(=O)N1C(=O)OCc1ccccc1.O=C(O)C(F)(F)F` [Example 16, trifluoroacetic acid benzyl (5S)-2-oxo-5-{[5-oxo-5-({4-oxo-1-[2-(propan-2-yloxy)ethyl]-2-sulfanylidene-1H,2H,3H,4H,5H-pyrrolo[3,2-d]pyrimidin-5-yl}methoxy)pentyl]carbamoyl} pyrrolidine-1-carboxylate], the SGF [1, 8] is reported as 96% remaining, the “Caco-2 Papp” value (Caco-2 monolayer; Caco-2 monolayer) is reported as 0.903 ×10⁻⁶ cm/s and the SIF [2, 9] is reported as 93% remaining. The “human Plasma stability” value (Plasma Stability; [10]) was 21% remaining.
In the case of “tert-butyl N-[2-(2-{[{{4-oxo-1-[2-(propan-2-yloxy)ethyl]-2-sulfanylidene-1H,2H,3H,4H,5H-pyrrolo[3,2-d]pyrimidin-5-yl}methoxy)carbonyl]amino}ethoxy) ethyl]carbamate [Example 372]”, the SGF [1, 6] is reported as 85% remaining, the “Caco-2 Papp” value (Caco-2 monolayer; Caco-2 monolayer) is reported as 11.7 ×10⁻⁶ cm/s and the SIF [2, 7] is reported as 60% remaining. The “human Plasma stability” value (Plasma Stability; human plasma, remaining at 1 h) was 0% remaining.
For `CC(C)OCCn1c(=S)[nH]c(=O)c2c1ccn2COC(=O)[C@H]1CCCN1C(=O)OCC1c2ccccc2-c2ccccc21` [Example 5, 1-(9H-fluoren-9-ylmethyl) 2-{4-oxo-1-[2-(propan-2-yloxy)ethyl]-2-sulfanylidene-1H, 2H,3H,4H,5H-pyrrolo[3,2-d]pyrimidin-5-yl}methyl(2R)-pyrrolidine-1,2-dicarboxylate], the SGF [1, 11] was 90%, the “Caco-2 Papp” value (Caco-2 monolayer; [12]) was 14 ×10⁻⁶ cm/s and the SIF [2, 13] was 76%. The “human Plasma stability” value (Plasma Stability; [14]) was 97%.
In the case of `CC(C)OCCn1c(=S)[nH]c(=O)c2c1ccn2COC(=O)CCNC(=O)[C@@H]1CCC(=O)N1C(=O)OCc1ccccc1.O=C(O)C(F)(F)F` [Example 17, trifluoroacetic acid benzyl (5S)-2-oxo-5-{[3-oxo-3-({4-oxo-1-[2-(propan-2-yloxy)ethyl]-2-sulfanylidene-1H,2H,3H,4H,5H-pyrrolo[3,2-d]pyrimidin-5-yl}methoxy)propyl]carbamoyl} pyrrolidine-1-carboxylate], the SGF [1, 8] is reported as 99% remaining, the “Caco-2 Papp” value (Caco-2 monolayer; Caco-2 monolayer) is reported as 0.368 ×10⁻⁶ cm/s and the SIF [2, 9] is reported as 3% remaining. The “human Plasma stability” value (Plasma Stability; [10]) was 38% remaining.
For `CC(C)C[C@H](NC(=O)OC(C)(C)C)C(=O)OCCCCC(=O)OCn1c(=O)c2c(ccn2COC(=O)CCCCOC(=O)[C@H](CC(C)C)NC(=O)OC(C)(C)C)n(CCOC(C)C)c1=S` [Example 344, 5-[(3-{[(5-{[(2S)-2-{[(tert-butoxy)carbonyl]amino}-4-methylpentanoyl]oxy}penta-noyl)oxy]methyl}-4-oxo-1-[2-(propan-2-yloxy)ethyl]-2-sulfanylidene-1H,2H,3H,4H,5H-pyrrolo[3,2-d]pyrimidin-5-yl)methoxy]-5-oxopentyl (2S)-2-{[(tert-butoxy)carbonyl]amino}-4-methylpentanoate], the SGF ([1]; % remaining @ 1 h) was 100% remaining, the “Caco-2 Papp” value (Caco-2 monolayer; Caco-2) was 2.46 ×10⁻⁶ cm/s and the SIF ([2]; % remaining @ 1 h) was 26% remaining. The “human Plasma stability” value (Plasma Stability; % remaining @ 1 h) was 28% remaining.
For `CC(C)OCCn1c(SCOC(=O)CCCCOC(=O)CNC(=O)OC(C)(C)C)nc(=O)c2c1ccn2COC(=O)CCCCOC(=O)CNC(=O)OC(C)(C)C` [Example 329, ({5-[{{5-[(2-{[(tert-butoxy)carbonyl]amino}acetyl)oxy]pentanoyl}oxy)methyl]-4-oxo-1-[2-(propan-2-yloxy)ethyl]-1H,4H,5H-pyrrolo[3,2-d]pyrimidin-2-yl}sulfanyl)methyl 5-[(2-{[(tert-butoxy)carbonyl]amino}acetyl)oxy] pentanoate], the SGF ([1]; % remaining @ 1 h) was 95% @ 1 h, the “Caco-2 Papp” value (Caco-2 monolayer) was 5.96 ×10⁻⁶ cm/s and the SIF ([2]; % remaining @ 1 h) was 35% @ 1 h. For the same compound, the “human Plasma stability” value (Plasma Stability; % remaining @ 1 h) was 1% @ 1 h.
For `CC(C)OCCn1c(SCOC(=O)OCCOCCN)nc(=O)c2c1ccn2COC(=O)OCCOCCN.O=C(O)C(F)(F)F.O=C(O)C(F)(F)F` [Example 124], the SGF [1, 8] was 67% remaining, the “Caco-2 Papp” value (Caco-2 monolayer; Caco-2 monolayer) was 1.18 ×10⁻⁶ cm/s and the SIF [2, 9] was 57% remaining. For the same compound, the “human Plasma stability” value (Plasma Stability; [10]) was 28% remaining.
With `CCN(C)C(=O)OCSc1nc(=O)c2c(ccn2COC(=O)N(C)CC)n1CCOC(C)C.O=C(O)C(F)(F)F` [Example 169, trifluoroacetic acid {2-[{{[ethyl(methyl)carba-moyl]oxy}methyl)sulfanyl]-4-oxo-1-[2-(propan-2-yloxy)ethyl]-1H,4H,5H-pyrrolo[3,2-d]pyrimidin-5-yl}methyl N-ethyl-N-methylcarbamate] the SGF ([1]; % @ 1 h (remaining) in simulated gastric fluid) was 99% @ 1 h, the “Caco-2 Papp” value (Caco-2 monolayer; Caco-2 monolayer) was 10.9 ×10⁻⁶ cm/s and the SIF ([2]; % @ 1 h (remaining) in simulated intestinal fluid) was 81% @ 1 h. The “human Plasma stability” value (Plasma Stability; % @ 1 h (remaining) in human plasma) was 89% @ 1 h.
With `CC(C)OCCn1c(=S)[nH]c(=O)c2c1ccn2C(C)OC(=O)OC(C)C` (stereo not drawn) [Example 92, 1-{4-oxo-1-[2-(propan-2-yloxy)ethyl]-2-sulfanylidene-1H,2H,3H,4H,5H-pyrrolo[3,2-d]pyrimidin-5-yl}ethyl propan-2-yl carbonate] the SGF [1, 11] was 1% remaining, the “Caco-2 Papp” value (Caco-2 monolayer; [12]) was “unstable” and the SIF [2, 13] was 74% remaining. For the same compound, the “human Plasma stability” value (Plasma Stability; [14]) was 0% remaining.
In the case of “{4-oxo-1-[2-(propan-2-yloxy)ethyl]-2-sulfanylidene-1H,2H,3H,4H,5H-pyrrolo[3,2-d]pyrimidin-5-yl}methyl 2-[2-(2-{[(tert-butoxy)carbonyl]amino}acetamido)-N-methylacetamido]acetate [Example 407]”, the SGF [1, 3] is reported as 98% remaining, the “Caco-2 Papp” value (Caco-2 monolayer; Caco-2 monolayer) is reported as 14.6 ×10⁻⁶ cm/s and the SIF [2, 4] is reported as 1% remaining. For the same compound, the “human Plasma stability” value (Plasma Stability; [5]) was 0% remaining.
With “(2R)-2-{[(tert-butoxy)carbonyl]amino}-4-methyl-N-[2-(2-{[{{4-oxo-1-[2-(propan-2-yloxy)ethyl]-2-sulfanylidene-1H,2H,3H,4H,5H-pyrrolo[3,2-d]pyrimidin-5-yl}methoxy)carbonyl]oxy}ethoxy)eth-yl]pentanamide [Example 385]” the SGF [1, 6] was 94% remaining, the “Caco-2 Papp” value (Caco-2 monolayer; Caco-2 monolayer) was 3.87 ×10⁻⁶ cm/s and the SIF [2, 7] was 84% remaining. For the same compound, the “human Plasma stability” value (Plasma Stability; human plasma, remaining at 1 h) was 1% remaining.
